Assay results published in PubChem BioAssay (NCI).
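How tested: cells in 96-well plates exposed to compound for 48 hours at five concentrations. GI50 marks 50% less growth. The concentration for full growth arrest is given as TGI.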

Assays:
Test in all cases: NCI anticancer screen, dose series, 48 h
MDA-MB-231 breast = test system: MDA-MB-231 breast
SNB-75 CNS = test system: SNB-75 CNS
ACHN renal = test system: ACHN renal
U251 CNS = test system: U251 CNS
DU-145 prostate = test system: DU-145 prostate
A549 NSCLC = test system: A549 NSCLC
IGROV1 ovarian = test system: IGROV1 ovarian
COLO 205 colon = test system: COLO 205 colon
CCRF-CEM leukemia = test system: CCRF-CEM leukemia
NCI-H226 lung = test system: NCI-H226 lung

| Structure (SMILES) | GI50 (MDA-MB-231 breast) [nM] | TGI (MDA-MB-231 breast) [µM] | GI50 (SNB-75 CNS) [nM] | TGI (SNB-75 CNS) [µM] | GI50 (ACHN renal) [nM] | TGI (ACHN renal) [µM] | GI50 (U251 CNS) [nM] | TGI (U251 CNS) [µM] | GI50 (DU-145 prostate) [µM] | TGI (DU-145 prostate) [µM] | GI50 (A549 NSCLC) [µM] | TGI (A549 NSCLC) [µM] | GI50 (IGROV1 ovarian) [µM] | TGI (IGROV1 ovarian) [µM] | GI50 (COLO 205 colon) [nM] | TGI (COLO 205 colon) [µM] | GI50 (CCRF-CEM leukemia) [nM] | TGI (CCRF-CEM leukemia) [µM] | GI50 (NCI-H226 lung) [µM] | TGI (NCI-H226 lung) [µM] |
| --- | --- | --- | --- | --- | --- | --- | --- | --- | --- | --- | --- | --- | --- | --- | --- | --- | --- | --- | --- | --- |
| CCOC(=O)c1c(Cl)c2c(n1Cc1cc(OC)cc(OC)c1)-c1oncc1CCC2 | 812 | > 91.7 | 229 | 4.41 | 1540 | > 100 | 351 | > 100 | 0.35 | 97.7 | 0.419 | > 100 | 0.317 | > 54.8 | 301 | 1.49 | 295 | > 100 | 6.84 | > 100 |
| CN(C)CC1CCn2c(c(C3=C(c4cn(C)c5ccccc45)C(=O)NC3=O)c3ccccc32)C1 (stereo not given) | 3420 | 7.56 | 772 | 5.28 | 3880 | 7.9 | 3950 | 7.64 | 4.91 | 10.9 | 4.5 | 9.06 | 5.22 | 10.1 | 3420 | 7.51 | 6410 | 24.2 | 4.01 | 9.38 |
| CO[C@H]1CC[C@@]2(C)C(=CC[C@H]3[C@@H]4C[C@H](O)C[C@@]4(C)CC[C@@H]32)C1 | 4970 | 24.7 | 3410 | 23 | 8200 | 28.3 | 3540 | 15 | 4.37 | 15.2 | 4.42 | 19.6 | 6.91 | 26.5 | 5020 | 16.2 | 3050 | 19.1 | 13.8 | 27.8 |
| O=C(O)CC1(C(=O)O)CCCCC1 |  | > 100 |  | > 100 |  | > 100 |  | > 100 |  | > 100 |  | > 100 |  | > 100 |  | > 100 |  | > 100 |  | > 100 |
| COc1ccc(Nc2ccnc(NCCCNc3ccnc4cc(Cl)ccc34)n2)cc1 | 583 | 2.15 | 903 | 2.14 | 1180 | 2.42 | 590 | 1.89 | 2.6 | 10.7 | 1.55 | 3.66 | 1.48 | 4.14 | 1210 | 2.65 | 340 | 1.8 | 1.92 | 4.55 |
| O=C(Nc1ccc(Br)c(Cl)c1)c1cc(F)ccc1O | 760 | 2.61 | 591 | 4.53 | 610 | > 14.4 | 768 | > 50 | 1.39 | > 50 | 1.75 | > 50 | 0.682 | > 50 | 2750 | 13.9 | 1430 | > 15.1 | 0.651 | 2.69 |
| Cc1ccc2sc3c(NCCCNCCO)nc4ccccc4c3c(=O)c2c1 | 1560 | 3.04 | 1200 | 2.5 | 1600 | 2.98 | 1600 | 3.18 | 1.71 | 3.15 | 1.78 | 3.63 | 1.59 | 3.14 | 1550 | 3.19 | 1350 | 2.97 | 1.78 | 3.68 |
| CNC1C(O)CC(OC2C/C=C(\C)C/C(C)=C/C=C/CCC(C)CNC(=O)/C=C/C=C/C2C)OC1C (stereo not given) |  | 2.91 |  | 2.91 |  | 2.85 |  | 1.03 |  | 2.79 |  |  |  | 2.58 |  | 0.679 |  | 0.758 |  | 43.8 |
| CCCC(=O)NNc1[nH]c(-c2ccc(OC)cc2)cc1C(=O)OCC | 16600 | 30.2 | 15400 | 29.4 | 10900 | 22.9 | 29500 | > 100 | 21.7 | 45.6 | 21.5 | 44.8 | 21.2 | 39.5 | 2390 | 5.89 | 2820 | > 100 | 16.1 | 30.1 |
| COc1ccc(-c2nc(-c3nc4cc(C)c(C)cc4[nH]3)cc3c2[nH]c2ccccc23)cc1 | 2540 | 7.76 | 3440 | 35 | 2600 | 27.9 | 3040 | 16.6 | 8.53 | > 100 | 3.94 | > 100 | 9.99 | > 100 | 1790 | 3.8 | 2510 | 7.56 | 3.32 | 54.8 |
| O=C(/C=C\Sc1nccc(C(F)(F)F)n1)c1ccc(Br)cc1 | 19100 | 44.4 | 28900 | > 100 | 15900 | 29.7 | 25000 | 72.8 | 17.6 | 47.9 | > 100 | > 100 | 16.8 | 35.8 | 18600 | 36.5 | 3680 | 11.9 | 26.9 | 87.8 |
| CN1CCN(Cc2ccc(Nc3ncc(Cl)c(Nc4ccccc4S(=O)(=O)N(C)C)n3)cc2)CC1 | 22.2 | 0.376 | 94.8 | 0.308 |  |  | 38 | 1.46 | 0.0516 | > 100 | 0.0365 | 1.7 | 0.0249 | 1.63 | 27.8 | 0.222 | < 18.7 | > 100 | 0.0915 | 0.859 |
| CC[C@H](C)C(=O)O[C@H]1CCC=C2C=C[C@H](C)C(CCC3C[C@@H](O)CC(=O)O3)[C@H]21 (stereo not given in full) | 455 | 12.5 | 1330 | 7.85 | 1700 | > 100 | 1820 | > 100 | 74.8 | > 100 | 17.7 | > 100 |  |  | 10500 | 36.8 | > 100000 | > 100 | 6.2 | 46 |
